According to US20160136123A1, “TREATMENT OF AUTOPHAGY-RELATED DISORDERS” (STC.UNM, priority 2013, published 2016):

Assays:
[1] = system: HeLa cells stably expressing mRFP-GFP-LC3B; experiment: TRIM family screen control: GFP-LC3B puncta area after pp242; assay type: cell-based, Human; settings: pp242 for 2 h, versus vehicle
Text: Referring to FIG. 1A/A HeLa cells stably expressing mRFP-GFP-LC3B were subjected to TRIM knockdowns, treated with pp242, and imaged to detect nuclear stain (blue) and GFP signal (green). Top, non-targeting siRNA-transfected cells treated with carrier (DMSO) or pp242. White lines, cell borders. Red, LC3B puncta borders. Bottom, representative images of cells subjected to knockdown of TRIM45 and TRIM2, both treated with pp242. (B) Measurement of average area of GFP-LC3B area per cell from cells treated as in (A) (data from multiple 96-well plates with identical siRNA arrangements represent means and ±SE).
Cells were exposed to virus at 4° C. for 1 hour to allow binding but not entry. […] Samples were prepared for analysis of p24, reverse transcriptase, or proviral DNA. […] HIV-1 RT was determined according to the manufacturer's protocol (Enz Chek, Invitrogen). HIV-1 proviral DNA was quantified as previously described (Campbell et al., 2004). […]
HeLa cells stably expressing mRFP-GFP-LC3B were cultured in 96-well plates containing siRNAs against 67 human TRIMs and transfection reagent (Dharmacon). […] Automated image collection of >500 cells (distributed over 49 or fewer fields per well per siRNA knockdown per plate) were machine-analyzed using preset scanning parameters and object mask definition (iDEV software). […] When results were expressed as puncta area per cell, the units corresponded to μm^2/cell.

autophagic maturation = settings: e.g. 1 mM, reference [27]; cited from earlier work
[2] = system: HeLa cells stably expressing mRFP-GFP-LC3; experiment: High content imaging of LC3 puncta after oleic acid pretreatment; assay type: cell-based, Human; settings: 500 μM BSA-oleic acid 20 h, then full medium or EBSS starvation 90 min
Description: Panals (A) and (B): HeLa cells stably expressing mRFP-GFP-LC3 were treated for 20 h with BSA alone (BSA) or with BSA-oleic acid (OA; 500 μM OA) and then starved in EBSS for 90 min (Starv) or incubated in full medium (Full). A, Visualization of lipid droplet accumulation. Cells were treated as in A and lipid droplets stained with Bodipy 493/503. B, High content image analysis. Program (iDev)-assigned masks: blue outline, valid primary objects (cells); green mask, GFP puncta. (C) number of GFP+ puncta per cell from experiments illustrated in A. (D) RFP+ puncta per cell from experiments illustrated in A. High content analysis data: means±s.e. (n=3, where n represents separate experiments; each experimental point in separate experiments contained >500 cells identified by the program as valid primary objects); *, p<0.05 (t-test). (E) HeLa cells were treated with 0, 100, 500 or 1000 μM oleic acid (OA) using BSA as a carrier (BSA-OA) for 20 h, followed by 90 min starvation in EBSS with or without Bafilomycin A1 (BafA1), and LC3-II/actin ratios determined by immunoblotting and densitometry. (F) HeLa cells were treated for 20 h with BSA alone or with BSA-OA (500 μM OA), followed by starvation in EBSS for 90 min with or without Bafilomycin A1 (BafA1) and LC3-II/actin ratios determined by immunoblotting and densitometry. Immunobloting data: means means±s.e., *, p<0.05 (t-test). […]

HeLa cells = experiment: LC3-II conversion immunoblot (LC3-II/actin) with or without bafilomycin A1 after oleic acid pretreatment and starvation; assay type: cell-based, Human
Description: Panals (A) and (B): HeLa cells stably expressing mRFP-GFP-LC3 were treated for 20 h with BSA alone (BSA) or with BSA-oleic acid (OA; 500 μM OA) and then starved in EBSS for 90 min (Starv) or incubated in full medium (Full). A, Visualization of lipid droplet accumulation. Cells were treated as in A and lipid droplets stained with Bodipy 493/503. B, High content image analysis. Program (iDev)-assigned masks: blue outline, valid primary objects (cells); green mask, GFP puncta. (C) number of GFP+ puncta per cell from experiments illustrated in A. (D) RFP+ puncta per cell from experiments illustrated in A. High content analysis data: means±s.e. (n=3, where n represents separate experiments; each experimental point in separate experiments contained >500 cells identified by the program as valid primary objects); *, p<0.05 (t-test). (E) HeLa cells were treated with 0, 100, 500 or 1000 μM oleic acid (OA) using BSA as a carrier (BSA-OA) for 20 h, followed by 90 min starvation in EBSS with or without Bafilomycin A1 (BafA1), and LC3-II/actin ratios determined by immunoblotting and densitometry. (F) HeLa cells were treated for 20 h with BSA alone or with BSA-OA (500 μM OA), followed by starvation in EBSS for 90 min with or without Bafilomycin A1 (BafA1) and LC3-II/actin ratios determined by immunoblotting and densitometry. Immunobloting data: means means±s.e., *, p<0.05 (t-test).
Addition of oleic acid (OA) is commonly used to increase cellular LD content. […] The enhancement was detected at both autophagy initiation stage (FIG. 1C; GFP-LC3) and autophagosomal maturation (FIG. 1D; mRFP-GFP), as determined by the acidification-sensitive GFP and acidification-insenstive mRFP probes used to distinguish early autophagosomes and autolysosomes, respectively. […]
Antibodies against endogenous proteins LC3 (MBL), P62 (BD Transduction), Atg16L1 (Cosmo Bio) were used for indirect immunofluorescence analysis. […] SlideBook morphometric analysis software 5.0 (Intelligent Imaging Innovations) was used to quantify the colocalization between Atg16L1 or DAG and lipid droplets. […]

[3] = system: 293T cells and HeLa cells; experiment: TRIM5α overexpression: LC3-II abundance (bafilomycin A1 flux assay) and LC3 puncta by high content analysis; assay type: cell-based, Human; settings: GFP-tagged protein overexpressed, compared with GFP alone; with or without bafilomycin A1
Text: FIG. 2A/A illustrates mapping of the p62/Sequestosome 1 region interacting with RhTRIM5α. Schematic (left): domain organization of p62 and deletion/point mutation constructs employed to analyze interactions with RhTRIM5α (right panel). TR, TRIM5α and TRAF6 binding region; NLS, nuclear localization signal; NES, nuclear export signal; LIR, LC3-interacting region; KIR, KEAP1-interacting region. Analysis (right): Myc-RhTRIM5α was radiolabeled with [^35S] methionine by in vitro translation and analyzed by GST pulldown assays with GST-p62 fusion proteins. Top, autoradiogram. Bottom, Coomassie Brilliant Blue (CBB)-stained SDS-polyacrylamide gel with GST-p62 proteins. (B) Effects of TRIM5α knockdown in HeLa cells on GFP-LC3 puncta (area/cell) under basal (DMSO control) and autophagy-inducing (pp242) conditions. HuT5a, human TRIM5α; Scr, Scrambled control. […]
We first tested p62 and TRIM5α interaction (FIG. S2A) and co-localization (FIG. S2B), and mapped the TRIM5α-binding domain on p62 to the region demarcated by residues 170-256 (FIG. 2A). […] When TRIM5α was knocked down, fewer LC3 puncta were detected ([…]) and LC3-II yields (FIG. 2A/B,C) upon induction with pp242 were reduced. […] In these experiments, high content analysis was used to differentiate GFP-TRIM5α-transfected or GFP-transfected cells from untransfected cells based on their green fluorescence. […]

**Q.** With `CC(C)n1nc(-c2cc3cc(O)ccc3[nH]2)c2c(N)ncnc21` [pp242] as the compound, how does the “induction of GFP-LC3B puncta area” value [1] read?
**A.** Its value is 17 fold.

**Q.** Which results are given for `CCCCCCCC/C=C\CCCCCCCC(=O)O` [OA, oleic acid]?
**A.** effect of high concentrations of OA on autophagic maturation (autophagic maturation): inhibitory to autophagic maturation; effect of increase in lipid droplets following OA pretreatment on autophagy (GFP+ and RFP+ LC3 puncta per cell) [2]: enhanced basal and induced autophagy; OA concentration optimal for enhancing starvation-induced autophagy (LC3-II/actin titration) (HeLa cells; 0, 100, 500 or 1000 μM OA 20 h, 90 min starvation in EBSS with or without bafilomycin A1): 500 µM; effect of OA pretreatment in the bafilomycin A1 inhibition assay (LC3-II/actin) (HeLa cells; 500 μM BSA-OA 20 h, EBSS 90 min with or without bafilomycin A1): enhanced cellular capacity for initiation of autophagy upon starvation; effect of 1 mM OA on starvation-induced autophagy (LC3-II/actin titration) (HeLa cells; 1 mM OA 20 h, 90 min starvation in EBSS): either a plateau or potentially inhibitory effects on autophagy

**Q.** Which “effect of TRIM5α overexpression on autophagy (LC3-II, LC3 puncta)” value [3] does the source give for “C15A mutant of RhTRIIVI5α: catalytically inactive (E3 ligase) C15A mutant of rhesus TRIM5α” here?
**A.** The value was “induced autophagy comparably to wt RhTRIM5α”.
